From ChEMBL document CHEMBL3588818 (Eur J Med Chem, 2015)
pKi: −log10 of the molar value.

Legend:
[1] = Displacement of [3H]DTG from sigma2 receptor in Sprague-Dawley rat liver membranes incubated for 2 hrs in presence of dextrallorphan by liquid scintillation counting based competitive radioligand binding assay; conditions: read-out: Ki(app)
PC-12 [2] = assay: Selectivity index, ratio of Ki for sigma2 receptor in Sprague-Dawley rat liver membranes to Ki for rat VAChT expressed in PC12 cell membranes; assay type: cell-based
[3] = biological target: Sigma non-opioid intracellular receptor 1 (Rattus norvegicus, UniProt Q9R0C9); assay: Displacement of […] from sigma1 receptor in Sprague-Dawley rat cortical membranes incubated for 2 hrs by liquid scintillation counting based competitive radioligand binding assay; conditions: read-out: Ki(app)
[4] = biological target: T1, Vesicular acetylcholine transporter (Torpedo californica, UniProt P81721); assay: Displacement of (-)-[3H]vesamicol from VAChT in Torpedo californica electric organ synaptic vesicles; parameters: species or system Tetronarce californica; conditions: read-out: Ki(app)
T1 sequence (P81721 whole entry): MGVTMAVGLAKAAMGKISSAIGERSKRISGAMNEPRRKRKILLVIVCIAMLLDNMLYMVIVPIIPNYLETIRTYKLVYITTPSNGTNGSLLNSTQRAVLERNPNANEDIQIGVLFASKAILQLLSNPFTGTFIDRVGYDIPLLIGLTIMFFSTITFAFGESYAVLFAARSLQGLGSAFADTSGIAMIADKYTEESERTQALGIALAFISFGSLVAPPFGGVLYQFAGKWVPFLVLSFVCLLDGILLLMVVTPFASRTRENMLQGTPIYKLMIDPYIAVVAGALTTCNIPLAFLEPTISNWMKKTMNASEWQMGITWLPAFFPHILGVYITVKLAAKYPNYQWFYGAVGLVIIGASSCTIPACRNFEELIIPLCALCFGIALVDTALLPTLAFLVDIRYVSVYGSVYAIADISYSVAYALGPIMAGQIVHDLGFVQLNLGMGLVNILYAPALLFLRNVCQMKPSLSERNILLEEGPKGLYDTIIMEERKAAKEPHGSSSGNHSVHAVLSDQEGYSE

PC-12 [5] = assay: Selectivity index, ratio of Ki for sigma1 receptor in Sprague-Dawley rat cortical membranes to Ki for rat VAChT expressed in PC12 cell membranes; assay type: cell-based
[6] = biological target: T2, Vesicular acetylcholine transporter (Rattus norvegicus, UniProt Q62666); assay: Displacement of (-)-[3H]vesamicol from rat VAChT expressed in PC12 cell membranes incubated for 2 hrs by liquid scintillation counting based competitive radioligand binding assay; parameters: species or system PC-12; conditions: read-out: Ki(app)
T2 sequence (Q62666 whole entry): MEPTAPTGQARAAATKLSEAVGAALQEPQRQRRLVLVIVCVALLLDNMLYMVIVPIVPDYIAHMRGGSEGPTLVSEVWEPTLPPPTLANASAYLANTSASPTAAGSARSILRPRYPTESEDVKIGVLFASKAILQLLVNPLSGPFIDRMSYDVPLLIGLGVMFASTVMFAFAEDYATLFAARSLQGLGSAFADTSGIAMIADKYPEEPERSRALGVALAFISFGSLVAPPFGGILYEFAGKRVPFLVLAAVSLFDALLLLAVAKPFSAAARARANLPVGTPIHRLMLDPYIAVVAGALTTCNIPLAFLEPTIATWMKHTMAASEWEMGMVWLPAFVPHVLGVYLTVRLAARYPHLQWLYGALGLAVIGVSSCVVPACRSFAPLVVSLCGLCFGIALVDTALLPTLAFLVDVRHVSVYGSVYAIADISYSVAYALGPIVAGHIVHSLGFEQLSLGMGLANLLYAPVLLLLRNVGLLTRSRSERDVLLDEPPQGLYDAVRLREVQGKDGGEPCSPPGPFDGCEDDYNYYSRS

Chain of Sigma non-opioid intracellular receptor 1 (Q9R0C9 whole entry): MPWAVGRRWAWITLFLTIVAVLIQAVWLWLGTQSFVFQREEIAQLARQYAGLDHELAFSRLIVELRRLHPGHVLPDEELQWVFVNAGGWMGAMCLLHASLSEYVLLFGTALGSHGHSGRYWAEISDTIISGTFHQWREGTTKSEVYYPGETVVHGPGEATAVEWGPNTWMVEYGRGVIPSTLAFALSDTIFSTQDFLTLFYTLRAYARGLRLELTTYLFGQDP

| SMILES | pKi [1] | Ratio Ki (PC-12 [2]) | pKi [3] | pKi [4] | Ratio Ki (PC-12 [5]) | pKi [6] |
| --- | --- | --- | --- | --- | --- | --- |
| O[C@@H]1CC=CC[C@H]1N1CCC(c2ccccc2)CC1 (racemic) | 7.11 | 4.2 | 8.24 | 9.47 | 0.3 | 7.74 |
| O[C@@H]1CC[C@@H](OCc2ccc(F)cc2)C[C@H]1N1CCC(O)(c2ccccc2)CC1 (racemic) | 6.87 | 0.4 | 7.33 |  | 0.2 | 6.50 |
| O=C(c1ccc(F)cc1)C1CCN([C@@H]2Cc3ccccc3C[C@H]2O)CC1 (racemic) | 6.55 | 1.6 | 6.67 | 8.57 | 8.8 | 7.61 |
| O[C@@H]1C[C@@H](OCc2ccc(F)cc2)CC[C@H]1N1CCC(Cc2ccccc2)CC1 (racemic) | 6.68 | 0.2 | 8.04 |  | < 0.1 | 5.89 |
| O[C@@H]1Cc2ccccc2C[C@H]1N1CCC(Cc2ccccc2)CC1 (racemic) | 7.22 | 2.6 | 7.19 |  | 2.8 | 7.63 |
| O[C@@H]1CCCC[C@H]1N1CCC(O)(c2ccccc2)CC1 (racemic) | 5.70 | 1.9 | 6.34 |  | 0.4 | 6.00 |
| CC(=O)C1(c2ccccc2)CCN([C@@H]2CCCC[C@H]2O)CC1 (racemic) | 6.79 | 0.1 | 7.65 |  | < 0.1 | 5.84 |
| Nc1cccc2c1C[C@@H](N1CCC(c3ccccc3)CC1)[C@H](O)C2 (racemic) | 6.32 | 18.9 | 6.92 | 10.89 | 4.7 | 7.60 |
| O=C(c1ccc(F)cc1)C1CCN([C@@H]2C[C@H](OCc3ccc(F)cc3)CC[C@H]2O)CC1 (racemic) | 6.19 | 0.6 | 7.23 |  | < 0.1 | 5.99 |
